We go through 19 compounds from US20210355104A1, “ADENOSINE RECEPTOR BINDING COMPOUNDS” (Nikang Therapeuticsm Inc., priority 2018, published 2021).

Where “and” joins values, the source holds several entries; their conditions need not be identical. Equal entries are not always repeated.

The target of test [1] is T1, Adenosine A2A receptor (Homo sapiens, UniProt P29274). The test is described as follows: cAMP assay in 293A cells stably expressing the adenosine A2A receptor (CGS21680 stimulation, HTRF). The settings on record: 293A-A2AR cells, 0.1% BSA. Format: cell-based. Further details: expressed in transfected cells; host or cells: 293A cells (Invitrogen, Cat# R705-07) infected with A2A-expressing lentivirus (custom packaged by Biosettia), puromycin selected. Background: cAMP levels reflect the balance of adenylyl cyclase and phosphodiesterase activity.
T1 sequence (P29274 whole entry): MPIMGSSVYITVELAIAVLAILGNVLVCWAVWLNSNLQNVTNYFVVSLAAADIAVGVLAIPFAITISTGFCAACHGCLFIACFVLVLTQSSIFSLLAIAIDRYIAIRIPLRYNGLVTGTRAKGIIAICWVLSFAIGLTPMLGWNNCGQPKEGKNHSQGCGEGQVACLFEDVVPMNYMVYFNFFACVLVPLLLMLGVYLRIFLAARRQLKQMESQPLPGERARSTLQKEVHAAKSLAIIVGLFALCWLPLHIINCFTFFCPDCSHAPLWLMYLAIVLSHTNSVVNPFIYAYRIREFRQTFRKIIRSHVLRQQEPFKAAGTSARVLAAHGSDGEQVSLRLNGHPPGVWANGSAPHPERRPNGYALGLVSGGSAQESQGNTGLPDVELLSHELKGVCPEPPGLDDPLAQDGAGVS

Test [2] relates to p-CREB (phosphorylated cAMP response-element binding protein) in human whole blood. The test is described as follows: p-CREB assay in human whole blood by flow cytometry (NECA stimulation, CD4 staining). Format: cell-based. The note with it: Homo sapiens. The protocol:
Assay protocol for p-CREB (phosphorylated cAMP response-element binding protein) in human whole blood by flow cytometry
Fresh human whole blood (Biological Specialty Corporation) was added at 100 ul per wellinto a 96-well plate and treated with test compounds (Serial dilutions of 1:3 with starting concentration at 30 uM, 11 concentrations total, in the presence of adenosine deaminase) for one hour at room temperature on a plate shaker. Then 10 ul of 10× NECA (50 uM stock in PBS) and 10 ul of 10 × Rolipram (50 uM stock in PBS) were added, with designated wells for unstimulated (Rolipram+DMSO) and stimulated (Rolipram+NECA+DMSO) conditions. The plates were mixed well and incubated at room temperature for 30 min on a plate shaker. 1× lyse/Fix buffer (5× stock, BD #558049) was warmed to 37° in a water bath. 1200 ul of pre-warmed 1× lyse/Fix buffer was then added to the plate, which was then sealed and mixed by inverting the plate a few times. The plate was then incubated for 30 min at 37° in a water bath. After incubation, the plate was centrifuged at 1600 rpm for 5 min and the supernatant was decanted, then 1200 ul PBS was added and the plate was mixed by inverting a few times followed by centrifuging at 1600 rpm for 5 min and again decanting the supernatant. Then, 200 ul FIX PERM buffer II (BD #558052) was added and the plate was mixed well, then kept on ice for 45 min After spinning the plate at 1600 rpm for 5 min the supernatant was again decanted. Then was added 200 ul staining buffer (BD #554657), and the plate was mixed well and spun at 1600 rpm for 5 min, then the supernatant was again decanted. 200 ul staining buffer was added, the plate was mixed well and the plate was sealed at this step for storage at 4° overnight or until staining. Before staining, the plate was spun at 1600 rpm for 5 min and the supernatant was again decanted. Antibody mix in staining buffer was prepared (75 ul/well, 1:50 dilution for p-CREB antibody from Cell Signaling Tech #14001S, 1:200 dilution for CD4 antibody from BD #566320) and the cells were resuspended in the above antibody mix solution. After mixing well, the plate was incubated (shielded from light) at room temperature for two hours on a plate shaker. It was then spun at 1600 rpm for 5 min and the supernatant was decanted. 200 ul staining buffer was then added to wash cells, and the plate was then mixed by shaking or pipetting. The wash step was repeated at least one more time, and after the final wash, cells were resusptended in 200 ul staining buffer in U bottom plate for flow cytometry analysis.
Background: In flow cytometry, cells or beads pass a laser one at a time.

Test [3] concerns the target T1, Adenosine A2A receptor. The test is described as follows: Adenosine A2A receptor competitive binding assay (Tag-lite HTRF). The settings on record: Tag-lite adenosine A2A receptor ligand binding, HTRF. The gist of the method: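 Compound displacement of a red fluorescent antagonist tracer (added at 60 nM stock) from donor-labelled, pre-transfected human A2A cells was read by HTRF after 2 h at room temperature; compound dilutions contained 0.6% DMSO.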
Background: Time-resolved FRET reads energy transfer from a long-lived donor to a nearby acceptor.

The mark [4] stands for this setting: 1 uM CGS, read-out: cAMP (nM) 0.1% BSA, 1 uM CGS.
[5] abbreviates: 8 nM CGS, values separated by / are repeat determinations, read-out: cAMP (nM) 0.1% BSA, 8 nM CGS.
[6] abbreviates: 1 uM CGS, values separated by / are repeat determinations, read-out: cAMP (nM) 0.1% BSA, 1 uM CGS.
[7] abbreviates: values separated by / are repeat determinations.
[8] abbreviates: 8 nM CGS, read-out: cAMP (nM) 0.1% BSA, 8 nM CGS.

As for `Cc1cc(-c2c(OCc3cccc([C@@H]4C[C@H]4C(=O)O)n3)nc(N)nc2-c2ccc(F)cc2)cc(C(F)F)n1` (relative stereo) [Example 353, (1,2-trans)-2-(6-(((2-amino-5-(2-(difluoromethyl)-6-methylpyridin-4-yl)-6-(4-fluorophenyl)pyrimidin-4-yl)oxy)methyl)pyridin-2-yl)cyclopropane-1-carboxylic acid], the IC50 at Adenosine A2A receptor [1] (setting [4]) came to 1240 nM; in test [2], 374 nM.

On to `Cc1cc(-c2c(OCc3cccc([C@@H]4C[C@@H]4C(=O)O)n3)nc(N)nc2-c2ccc(F)cc2)cc(C(F)F)n1` (relative stereo) [Example 354, (1,2-cis)-2-(6-(((2-amino-5-(2-(difluoromethyl)-6-methylpyridin-4-yl)-6-(4-fluorophenyl)pyrimidin-4-yl)oxy)methyl)pyridin-2-yl)cyclopropane-1-carboxylic acid], for which the IC50 was 563 nM and 977 nM on Adenosine A2A receptor [1] (setting [4]); 549 nM in test [2].

For `CCN(CC)C(=O)COc1nc(N)nc(-c2ccccc2)c1-c1cc(C)nc(C(F)(F)F)c1` [Example 3, 2-((2-amino-5-(2-methyl-6-(trifluoromethyl)pyridin-4-yl)-6-phenylpyrimidin-4-yl)oxy)-N,N-diethylacetamide], the IC50 on Adenosine A2A receptor [1] (setting [5]) was 0.6 nM; at Adenosine A2A receptor [1] (setting [6]), 69 nM and 24 nM; in test [2] (setting [7]), 47 nM.

As for `Cc1cc(-c2c(OCc3nccn3C(C)C)nc(N)nc2-c2ccc(F)cc2)cc(C(F)F)n1` [Example 99, 5-(2-(difluoromethyl)-6-methylpyridin-4-yl)-4-(4-fluorophenyl)-6-((1-isopropyl-1H-imidazol-2-yl)methoxy)pyrimidin-2-amine], the IC50 at Adenosine A2A receptor [1] (setting [5]) was 0.064 nM and 0.19 nM; on Adenosine A2A receptor [1] (setting [6]), 32 nM and 22 nM; in test [2] (setting [7]), 47 nM.

In the case of `Cc1cc(-c2c(OCc3nc(S(C)(=O)=O)cn3C(C)C)nc(N)nc2-c2ccc(F)cc2)cc(C(F)F)n1` [Example 211, 5-(2-(difluoromethyl)-6-methylpyridin-4-yl)-4-(4-fluorophenyl)-6-((1-isopropyl-4-(methylsulfonyl)-1H-imidazol-2-yl)methoxy)pyrimidin-2-amine], the values for the IC50 on Adenosine A2A receptor [1] (setting [8]) and at Adenosine A2A receptor [3] were 7.3 nM and 47 nM, respectively.

As for `Cc1cc(-c2c(OCCOc3ccnc(N(C)CCO)c3)nc(N)nc2-c2ccc(F)cc2)cc(C(F)F)n1` [Example 212, 2-((4-(2-((2-amino-5-(2-(difluoromethyl)-6-methylpyridin-4-yl)-6-(4-fluorophenyl)pyrimidin-4-yl)oxy)ethoxy)pyridin-2-yl)(methyl)amino)ethan-1-ol], the IC50 came to 62 nM on Adenosine A2A receptor [1] (setting [8]) and 174 nM on Adenosine A2A receptor [3].

As for `Cc1cc(-c2c(OCCOc3cccc(N(C)CCO)n3)nc(N)nc2-c2ccc(F)cc2)cc(C(F)F)n1` [Example 213, 2-((6-(2-((2-amino-5-(2-(difluoromethyl)-6-methylpyridin-4-yl)-6-(4-fluorophenyl)pyrimidin-4-yl)oxy)ethoxy)pyridin-2-yl)(methyl)amino)ethan-1-ol], the IC50 was found to be 3.4 nM on Adenosine A2A receptor [1] (setting [8]), 7.16 nM on Adenosine A2A receptor [1] (setting [4]) and 9.3 nM at Adenosine A2A receptor [3].

As for `Cc1cc(-c2c(OCc3ccn(CC4CC4)n3)nc(N)nc2-c2ccc(F)cc2)cc(C(F)F)n1` [Example 214], the IC50 on Adenosine A2A receptor [1] (setting [4]) amounted to 327 nM; at Adenosine A2A receptor [3], 4.5 nM.

Take `Cc1cc(-c2c(OCc3nccn3CS(C)(=O)=O)nc(N)nc2-c2ccc(F)cc2)cc(C(F)F)n1` [Example 215, 5-(2-(difluoromethyl)-6-methylpyridin-4-yl)-4-(4-fluorophenyl)-6-((1-((methylsulfonyl)methyl)-1H-imidazol-2-yl)methoxy)pyrimidin-2-amine]: the IC50 on Adenosine A2A receptor [1] (setting [4]) is 965 nM; on Adenosine A2A receptor [3], 9.7 nM.

In the case of `Cc1cc(-c2c(OCc3ccc(C(C)(C)O)cn3)nc(N)nc2-c2ccc(F)cc2)cc(C(F)F)n1` [Example 217, 2-(6-(((2-amino-5-(2-(difluoromethyl)-6-methylpyridin-4-yl)-6-(4-fluorophenyl)pyrimidin-4-yl)oxy)methyl)pyridin-3-yl)propan-2-ol], the IC50 on Adenosine A2A receptor [1] (setting [4]) came out at 6500 nM; on Adenosine A2A receptor [3], 21 nM.

Regarding `Cc1cc(-c2c(OCc3ccncn3)nc(N)nc2-c2ccc(F)cc2)cc(C(F)F)n1` [Example 218, 5-(2-(difluoromethyl)-6-methylpyridin-4-yl)-4-(4-fluorophenyl)-6-(pyrimidin-4-ylmethoxy)pyrimidin-2-amine], the IC50 was 76 nM and 48 nM on Adenosine A2A receptor [1] (setting [4]); 1.7 nM at Adenosine A2A receptor [3].

For the compound `CCn1cnc(COc2nc(N)nc(-c3ccc(F)cc3)c2-c2cc(C)nc(C(F)F)c2)n1` [Example 221, 5-(2-(difluoromethyl)-6-methyipyridin-4-yl)-4-((1-ethyl-1H-1,2,4-triazol-3-yl)methoxy)-6-(4-fluorophenyl)pyrimidin-2-amine], the IC50 turned out to be 444 nM on Adenosine A2A receptor [1] (setting [4]) and 24 nM on Adenosine A2A receptor [3].

Regarding `Cc1cc(-c2c(OCc3cccnn3)nc(N)nc2-c2ccc(F)cc2)cc(C(F)F)n1` [Example 223, 5-(2-(difluoromethyl)-6-methylpyridin-4-yl)-4-(4-fluorophenyl)-6-(pyridazin-3-ylmethoxy)pyrimidin-2-amine], the figures for the IC50 at Adenosine A2A receptor [1] (setting [4]) and at Adenosine A2A receptor [3] were 788 nM and 4.1 nM, respectively.

For `Cc1cc(-c2c(OCc3cc(C(C)(C)O)ccn3)nc(N)nc2-c2ccc(F)cc2)cc(C(F)F)n1` [Example 224, 2-(2-(((2-amino-5-(2-(difluoromethyl)-6-methylpyridin-4-yl)-6-(4-fluorophenyl)pyrimidin-4-yl)oxy)methyl)pyridin-4-yl)propan-2-ol], the IC50 at Adenosine A2A receptor [1] (setting [4]) amounted to 1320 nM; at Adenosine A2A receptor [3], 9.5 nM.

With `CCn1nccc1COc1nc(N)nc(-c2ccc(F)cc2)c1-c1cc(C)nc(C(F)F)c1` [Example 227, 5-(2-(difluoromethyl)-6-methylpyridin-4-yl)-4-((1-ethyl-1H-pyrazol-5-yl)methoxy)-6-(4-fluorophenyl)pyrimidin-2-amine], the IC50 on Adenosine A2A receptor [1] (setting [4]) is 29 nM and 97 nM and 71 nM; in test [2], 17.8 nM.

As for `CCn1ccc(COc2nc(N)nc(-c3ccc(F)cc3)c2-c2cc(C)nc(C(F)F)c2)n1` [Example 228, 5-(2-(difluoromethyl)-6-methylpyridin-4-yl)-4-((1-ethyl-1H-pyrazol-3-yl)methoxy)-6-(4-fluorophenyl)pyrimidin-2-amine], the IC50 on Adenosine A2A receptor [1] (setting [8]) was 0.9 nM; at Adenosine A2A receptor [1] (setting [4]) it was 162 nM; on Adenosine A2A receptor [3] it was 2.5 nM and 3.6 nM.

Take `Cc1cc(-c2c(OCc3ccnc(N4CC(C)(O)C4)n3)nc(N)nc2-c2ccc(F)cc2)cc(C(F)F)n1` [Example 266, 1-(4-(((2-amino-5-(2-(difluoromethyl)-6-methylpyridin-4-yl)-6-(4-fluorophenyl)pyrimidin-4-yl)oxy)methyl)pyrimidin-2-yl)-3-methylazetidin-3-ol]: the IC50 in test [2] is 4910 nM.

As to `Cc1cc(-c2c(OCc3ccn(CC(C)(C)C(=O)O)n3)nc(N)nc2-c2ccc(F)cc2)cc(C(F)F)n1` [Example 267, 3-(3-(((2-amino-5-(2-(difluoromethyl)-6-methylpyridin-4-yl)-6-(4-fluorophenyl)pyrimidin-4-yl)oxy)methyl)-1H-pyrazol-1-yl)-2,2-dimethylpropanoic acid], in test [2], the IC50 came out at 5580 nM.

On to `CCn1nnnc1COc1nc(N)nc(-c2ccc(F)cc2)c1-c1cc(C)nc(C(F)F)c1` [Example 295, 5-(2-(difluoromethyl)-6-methylpyridin-4-yl)-4-((1-ethyl-1H-tetrazol-5-yl)methoxy)-6-(4-fluorophenyl)pyrimidin-2-amine], for which the IC50 at Adenosine A2A receptor [1] (setting [4]) was 175 nM and 69 nM and 201 nM; on Adenosine A2A receptor [3] it was 7.4 nM.
